In ChEMBL document CHEMBL1141471, “Implications for selectivity of 3,4-diarylquinolinones as p38alphaMAP kinase inhibitors” (Bioorg Med Chem Lett, 2008):
Values belong to the molecule of their own block, whether it stands above or below them.

Legend:
[1] = target: Mitogen-activated protein kinase 3 (Homo sapiens) (UniProt P27361); assay: Inhibition of ERK1 assessed as residual activity at 10 uM relative to control
[2] = target: Mitogen-activated protein kinase 1 (Homo sapiens) (UniProt P28482); assay: Residual activity of ERK2 at 10 uM relative to control
[3] = target: Mitogen-activated protein kinase 8 (Homo sapiens) (UniProt P45983); assay: Residual activity of JNK1 at 10 uM relative to control
[4] = target: T1, Mitogen-activated protein kinase 9 (Homo sapiens, UniProt P45984); assay: Residual activity of JNK2 at 10 uM relative to control
Target sequence in this assay (P45984 whole entry, looked up): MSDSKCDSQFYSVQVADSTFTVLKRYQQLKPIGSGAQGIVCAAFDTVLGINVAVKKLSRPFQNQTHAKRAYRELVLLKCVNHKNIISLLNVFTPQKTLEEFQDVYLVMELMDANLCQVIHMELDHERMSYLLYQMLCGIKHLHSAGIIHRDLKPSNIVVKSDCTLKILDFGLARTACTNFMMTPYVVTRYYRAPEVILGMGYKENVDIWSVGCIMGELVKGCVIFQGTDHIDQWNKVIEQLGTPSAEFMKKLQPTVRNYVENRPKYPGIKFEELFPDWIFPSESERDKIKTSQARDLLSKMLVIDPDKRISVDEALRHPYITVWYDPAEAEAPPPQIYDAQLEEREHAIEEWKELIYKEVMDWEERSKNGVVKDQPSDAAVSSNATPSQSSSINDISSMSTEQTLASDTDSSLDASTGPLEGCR

[5] = target: Mitogen-activated protein kinase 10 (Homo sapiens) (UniProt P53779); assay: Residual activity of JNK3 at 10 uM relative to control
[6] = target: T2, Mitogen-activated protein kinase 14 (Homo sapiens, UniProt Q16539); assay: Inhibition of p38alpha assessed as residual activity at 10 uM relative to control
[7] = target: Mitogen-activated protein kinase 11 (Homo sapiens) (UniProt Q15759); assay: Residual activity of p38beta at 10 uM relative to control
[8] = target: T3, Mitogen-activated protein kinase 12 (Homo sapiens) (UniProt P53778); assay: Residual activity of p38-gamma at 10 uM relative to control; format: functional
T3 sequence (whole entry): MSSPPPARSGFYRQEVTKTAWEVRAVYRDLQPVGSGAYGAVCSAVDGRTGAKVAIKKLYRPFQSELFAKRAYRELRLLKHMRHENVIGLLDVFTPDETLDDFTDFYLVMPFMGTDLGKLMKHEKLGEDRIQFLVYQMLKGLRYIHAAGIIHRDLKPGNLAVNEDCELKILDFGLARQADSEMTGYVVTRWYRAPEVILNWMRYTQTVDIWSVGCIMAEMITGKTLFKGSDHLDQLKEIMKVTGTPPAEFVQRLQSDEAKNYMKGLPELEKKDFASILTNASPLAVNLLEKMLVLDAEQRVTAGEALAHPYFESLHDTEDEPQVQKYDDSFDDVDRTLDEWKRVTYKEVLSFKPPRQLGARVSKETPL

[9] = target: T4, Mitogen-activated protein kinase 13 (Homo sapiens) (UniProt O15264); assay: Residual activity of p38delta at 10 uM relative to control
T4 sequence (whole entry): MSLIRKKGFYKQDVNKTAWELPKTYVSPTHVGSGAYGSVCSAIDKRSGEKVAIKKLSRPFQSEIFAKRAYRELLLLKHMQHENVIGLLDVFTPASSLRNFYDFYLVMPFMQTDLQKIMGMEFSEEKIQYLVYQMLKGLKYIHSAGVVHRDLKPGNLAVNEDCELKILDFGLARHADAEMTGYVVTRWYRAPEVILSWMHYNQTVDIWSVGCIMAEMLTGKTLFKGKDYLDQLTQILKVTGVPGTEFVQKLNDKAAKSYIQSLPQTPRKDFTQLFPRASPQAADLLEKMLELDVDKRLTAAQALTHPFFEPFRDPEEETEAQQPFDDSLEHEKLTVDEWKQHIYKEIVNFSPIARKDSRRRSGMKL

[10] = target: T5, Mitogen-activated protein kinase 15 (Homo sapiens) (UniProt Q8TD08); assay: Residual activity of ERK8 at 10 uM relative to control
T5 sequence (whole entry): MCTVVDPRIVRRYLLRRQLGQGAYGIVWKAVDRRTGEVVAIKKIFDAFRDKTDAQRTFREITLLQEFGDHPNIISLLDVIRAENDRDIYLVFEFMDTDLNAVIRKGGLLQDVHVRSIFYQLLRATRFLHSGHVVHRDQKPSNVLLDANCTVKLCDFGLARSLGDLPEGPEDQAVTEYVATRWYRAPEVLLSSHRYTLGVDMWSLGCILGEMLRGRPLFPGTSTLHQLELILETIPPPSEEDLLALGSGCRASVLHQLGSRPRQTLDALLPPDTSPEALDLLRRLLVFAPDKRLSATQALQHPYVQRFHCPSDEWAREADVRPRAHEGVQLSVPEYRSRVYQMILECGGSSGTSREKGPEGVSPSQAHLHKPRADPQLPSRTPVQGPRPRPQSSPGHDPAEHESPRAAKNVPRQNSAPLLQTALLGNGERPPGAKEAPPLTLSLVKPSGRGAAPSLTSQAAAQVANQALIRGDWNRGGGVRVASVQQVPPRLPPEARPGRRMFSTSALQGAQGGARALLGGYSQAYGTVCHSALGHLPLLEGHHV

[11] = target: Aurora kinase B (Homo sapiens) (UniProt Q96GD4); assay: Inhibition of Aurora B; values are per cent of control
[12] = Inhibition of Aurora C; values are per cent of control
[13] = target: T2, Mitogen-activated protein kinase 14; assay: Inhibition of p38alpha
[14] = target: T1, Mitogen-activated protein kinase 9; assay: Inhibition of JNK2
Target sequence in this assay (P45984 whole entry): as the sequence (P45984 whole entry, looked up) above

[15] = Inhibition of PKA; values are per cent of control
[16] = target: Tyrosine-protein kinase Lck (Homo sapiens) (UniProt P06239); assay: Inhibition of Lck; values are per cent of control
[17] = target: T6, Serine/threonine-protein kinase D1 (Homo sapiens) (UniProt Q15139); assay: Inhibition of PKD1; values are per cent of control
T6 sequence (whole entry): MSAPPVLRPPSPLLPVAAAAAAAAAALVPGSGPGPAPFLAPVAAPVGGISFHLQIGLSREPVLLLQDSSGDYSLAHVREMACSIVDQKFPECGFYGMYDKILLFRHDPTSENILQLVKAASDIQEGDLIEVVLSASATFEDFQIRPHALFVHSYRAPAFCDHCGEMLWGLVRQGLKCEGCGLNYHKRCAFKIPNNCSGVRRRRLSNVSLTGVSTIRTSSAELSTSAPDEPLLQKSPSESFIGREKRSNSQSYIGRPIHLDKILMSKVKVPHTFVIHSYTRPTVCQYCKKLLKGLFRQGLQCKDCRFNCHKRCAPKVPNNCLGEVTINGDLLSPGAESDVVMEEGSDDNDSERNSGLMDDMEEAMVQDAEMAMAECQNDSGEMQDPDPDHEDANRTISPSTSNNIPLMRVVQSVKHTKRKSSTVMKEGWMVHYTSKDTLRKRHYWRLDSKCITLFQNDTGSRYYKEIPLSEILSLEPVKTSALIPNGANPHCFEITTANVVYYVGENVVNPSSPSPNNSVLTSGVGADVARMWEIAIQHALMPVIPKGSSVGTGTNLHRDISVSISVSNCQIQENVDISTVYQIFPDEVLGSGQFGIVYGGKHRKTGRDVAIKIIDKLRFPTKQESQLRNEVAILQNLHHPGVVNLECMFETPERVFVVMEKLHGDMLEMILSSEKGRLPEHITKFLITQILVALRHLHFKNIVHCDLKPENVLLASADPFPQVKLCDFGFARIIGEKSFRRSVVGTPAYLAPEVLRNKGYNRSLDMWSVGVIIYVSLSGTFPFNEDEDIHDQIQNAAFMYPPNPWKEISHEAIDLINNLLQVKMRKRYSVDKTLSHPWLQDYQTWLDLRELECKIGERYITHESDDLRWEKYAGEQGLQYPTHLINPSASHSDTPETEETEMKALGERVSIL

T2 sequence (Q16539 whole entry): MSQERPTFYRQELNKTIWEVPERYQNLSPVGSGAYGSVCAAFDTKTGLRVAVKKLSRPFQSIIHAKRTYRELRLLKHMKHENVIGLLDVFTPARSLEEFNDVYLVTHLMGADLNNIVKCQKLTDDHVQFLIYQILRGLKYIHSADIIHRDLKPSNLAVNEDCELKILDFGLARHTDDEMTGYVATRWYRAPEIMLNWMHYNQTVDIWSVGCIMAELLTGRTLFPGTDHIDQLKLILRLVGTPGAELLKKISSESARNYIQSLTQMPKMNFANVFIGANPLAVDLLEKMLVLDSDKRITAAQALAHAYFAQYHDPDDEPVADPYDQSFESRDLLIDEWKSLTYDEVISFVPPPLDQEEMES
Mitogen-activated protein kinase 8 (Homo sapiens), sequence (P45983 whole entry): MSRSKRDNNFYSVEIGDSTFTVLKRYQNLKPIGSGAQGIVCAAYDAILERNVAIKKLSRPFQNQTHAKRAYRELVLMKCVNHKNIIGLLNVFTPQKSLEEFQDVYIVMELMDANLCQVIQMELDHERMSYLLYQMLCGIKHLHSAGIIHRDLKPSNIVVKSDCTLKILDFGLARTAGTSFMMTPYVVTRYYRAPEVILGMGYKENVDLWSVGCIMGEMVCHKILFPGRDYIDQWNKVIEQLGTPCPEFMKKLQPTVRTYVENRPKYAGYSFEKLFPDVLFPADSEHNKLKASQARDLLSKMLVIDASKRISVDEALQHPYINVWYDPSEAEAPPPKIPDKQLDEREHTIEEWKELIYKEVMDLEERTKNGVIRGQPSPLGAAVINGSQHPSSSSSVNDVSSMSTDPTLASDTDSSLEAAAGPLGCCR
Mitogen-activated protein kinase 1 (Homo sapiens), sequence (P28482 whole entry): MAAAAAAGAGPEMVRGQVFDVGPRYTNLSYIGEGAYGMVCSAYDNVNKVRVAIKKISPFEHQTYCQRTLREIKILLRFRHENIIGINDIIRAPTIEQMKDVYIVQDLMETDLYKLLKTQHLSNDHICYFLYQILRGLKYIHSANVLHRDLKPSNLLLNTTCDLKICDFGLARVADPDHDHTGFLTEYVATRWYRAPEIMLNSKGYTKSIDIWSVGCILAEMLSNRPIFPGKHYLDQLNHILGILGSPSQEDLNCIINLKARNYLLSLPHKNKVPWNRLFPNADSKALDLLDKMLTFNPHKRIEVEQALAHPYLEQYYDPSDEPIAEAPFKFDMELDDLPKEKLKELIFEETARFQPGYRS
Mitogen-activated protein kinase 10 (Homo sapiens), sequence (P53779 whole entry): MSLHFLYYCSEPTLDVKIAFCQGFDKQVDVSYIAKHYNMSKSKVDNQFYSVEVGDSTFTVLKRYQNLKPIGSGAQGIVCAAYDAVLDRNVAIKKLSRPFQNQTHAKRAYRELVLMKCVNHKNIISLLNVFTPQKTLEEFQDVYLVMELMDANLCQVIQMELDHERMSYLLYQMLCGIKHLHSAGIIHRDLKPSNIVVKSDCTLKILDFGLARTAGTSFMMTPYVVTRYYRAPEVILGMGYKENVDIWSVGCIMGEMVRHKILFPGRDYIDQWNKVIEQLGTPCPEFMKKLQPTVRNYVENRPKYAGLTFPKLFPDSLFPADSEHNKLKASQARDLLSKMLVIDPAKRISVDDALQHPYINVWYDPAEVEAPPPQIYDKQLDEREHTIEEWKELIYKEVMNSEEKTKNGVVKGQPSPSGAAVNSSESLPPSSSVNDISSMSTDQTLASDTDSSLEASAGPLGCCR
Mitogen-activated protein kinase 3 (Homo sapiens), sequence (P27361 whole entry): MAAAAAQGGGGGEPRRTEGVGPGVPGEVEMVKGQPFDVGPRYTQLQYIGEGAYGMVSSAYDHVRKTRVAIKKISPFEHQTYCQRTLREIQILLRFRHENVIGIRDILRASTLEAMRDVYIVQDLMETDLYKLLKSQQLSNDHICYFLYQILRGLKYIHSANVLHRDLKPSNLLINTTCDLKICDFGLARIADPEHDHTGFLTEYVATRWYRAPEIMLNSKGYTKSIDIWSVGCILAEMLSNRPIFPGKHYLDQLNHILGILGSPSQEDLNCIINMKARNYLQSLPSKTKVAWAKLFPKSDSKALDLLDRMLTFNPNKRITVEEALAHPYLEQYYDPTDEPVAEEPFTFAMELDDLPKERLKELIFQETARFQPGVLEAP
Mitogen-activated protein kinase 11 (Homo sapiens), sequence (Q15759 whole entry): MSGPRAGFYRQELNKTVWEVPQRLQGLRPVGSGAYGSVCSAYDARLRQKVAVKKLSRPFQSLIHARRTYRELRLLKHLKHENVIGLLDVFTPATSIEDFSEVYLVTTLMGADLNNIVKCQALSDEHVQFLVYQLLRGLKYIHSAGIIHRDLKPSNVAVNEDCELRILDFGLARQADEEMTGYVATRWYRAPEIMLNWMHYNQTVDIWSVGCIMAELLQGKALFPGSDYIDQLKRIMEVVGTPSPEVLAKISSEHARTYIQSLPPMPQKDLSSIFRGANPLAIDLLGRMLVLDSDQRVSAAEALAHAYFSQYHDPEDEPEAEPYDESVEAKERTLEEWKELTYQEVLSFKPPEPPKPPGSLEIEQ
Aurora kinase B (Homo sapiens), sequence (Q96GD4 whole entry): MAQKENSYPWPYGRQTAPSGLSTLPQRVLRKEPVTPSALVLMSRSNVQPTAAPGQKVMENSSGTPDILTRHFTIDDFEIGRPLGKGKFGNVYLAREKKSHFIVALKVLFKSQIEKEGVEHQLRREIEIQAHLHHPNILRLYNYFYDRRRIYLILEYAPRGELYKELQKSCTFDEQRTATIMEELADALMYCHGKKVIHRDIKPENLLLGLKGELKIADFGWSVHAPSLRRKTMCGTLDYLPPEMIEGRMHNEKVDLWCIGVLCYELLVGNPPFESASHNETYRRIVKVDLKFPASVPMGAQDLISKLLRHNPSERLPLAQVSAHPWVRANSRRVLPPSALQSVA
Tyrosine-protein kinase Lck (Homo sapiens), sequence (P06239 2-509 limits assumed): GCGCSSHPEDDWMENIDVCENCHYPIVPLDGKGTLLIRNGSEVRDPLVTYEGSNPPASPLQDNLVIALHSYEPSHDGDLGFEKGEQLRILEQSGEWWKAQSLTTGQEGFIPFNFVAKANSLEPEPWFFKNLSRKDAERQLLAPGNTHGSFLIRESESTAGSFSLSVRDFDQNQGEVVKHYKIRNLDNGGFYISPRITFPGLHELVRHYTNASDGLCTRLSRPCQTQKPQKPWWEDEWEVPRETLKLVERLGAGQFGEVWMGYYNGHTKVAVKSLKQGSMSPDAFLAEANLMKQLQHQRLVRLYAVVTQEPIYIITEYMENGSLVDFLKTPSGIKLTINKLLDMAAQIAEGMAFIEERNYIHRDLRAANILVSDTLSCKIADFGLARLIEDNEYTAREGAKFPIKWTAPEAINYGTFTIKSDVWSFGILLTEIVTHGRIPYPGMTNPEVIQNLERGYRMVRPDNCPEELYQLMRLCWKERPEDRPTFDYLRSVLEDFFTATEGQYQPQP

Compound: CC(C)c1noc(-c2ccc(F)cc2)c1-c1ccncc1
- Activity [1]: 87%
- Activity [2]: 88%
- Activity [3]: 98%
- Activity [4]: 59%
- Activity [5]: 63%
- Activity [6]: 50%
- Activity [7]: 98%
- Activity [8]: 94%
- Activity [9]: 95%
- Activity [10]: 88%
- residual activity [11]: 22%
- residual activity [12]: 35%

Compound: O=c1[nH]c2ccccc2c(-c2ccncc2)c1-c1ccc(F)cc1
- Activity [1]: 84%
- Activity [2]: 93%
- Activity [3]: 86%
- Activity [4]: 89%
- Activity [5]: 106%
- Activity [6]: 53%
- Activity [7]: 97%
- Activity [8]: 89%
- Activity [9]: 91%
- Activity [10]: 73%

Compound: O=c1cc(-c2ccncc2)c2ccccc2[nH]1
- Activity [6]: 78%

Compound: O=c1c(-c2ccc(F)cc2)c(-c2ccncc2)c2ccccc2n1CCc1ccccc1
- IC50 [13]: 8.2 µM

Compound: CCn1c(=O)c(-c2ccc(F)cc2)c(-c2ccncc2)c2ccccc21
- IC50 [13]: 2.2 µM

Compound: CCOc1nc2ccccc2c(-c2ccncc2)c1-c1ccc(F)cc1
- Activity [6]: 66%

Compound: CCC(O)C(O)n1c(=O)c(-c2ccc(F)cc2)c(-c2ccncc2)c2ccccc21 (stereo not drawn)
- Activity [6]: 57%

Compound: CC#Cn1c(=O)c(-c2ccc(F)cc2)c(-c2ccncc2)c2ccccc21
- IC50 [13]: 3.1 µM

Compound: CC(C)c1onc(-c2ccc(F)cc2)c1-c1ccncc1
- IC50 [14]: 1.28 µM
- Activity [1]: 92%
- Activity [2]: 86%
- Activity [3]: 67%
- Activity [4]: 13%
- Activity [5]: 28%
- Activity [6]: 20%
- Activity [7]: 95%
- Activity [8]: 84%
- Activity [9]: 86%
- Activity [10]: 84%
- residual activity [15]: 28%
- residual activity [16]: 42%
- residual activity [17]: 60%

Other lines, results leading:

- Activity [6]: 55%
Compound: CC1(C)OCC(Cn2c(=O)c(-c3ccc(F)cc3)c(-c3ccncc3)c3ccccc32)O1 (stereo not drawn)

- IC50 [13]: 9.7 µM
Compound: Cc1ccccc1-c1c(-c2ccncc2)c2ccccc2[nH]c1=O

- Activity [6]: 64%
Compound: O=c1[nH]c2ccccc2c(-c2ccccc2)c1-c1ccccc1

- Activity [6]: 80%
Compound: CCC(O)C(O)n1c(=O)c(-c2ccccc2C)c(-c2ccncc2)c2ccccc21 (stereo not drawn)

- IC50 [13]: 5.2 µM
Compound: Cn1c(=O)c(-c2ccc(F)cc2)c(-c2ccncc2)c2ccccc21

- Activity [6]: 79%
Compound: CC#COc1nc2ccccc2c(-c2ccncc2)c1-c1ccc(F)cc1
